Literature values as cited in patent publication US9918950B2, “Targeted treatment of anerobic cancer” (University Hospitals Cleveland Medical Center, priority 2012, dated 2018).

Tests used:
[1] = test system: HCT116 human colon carcinoma cells; settings: HCT116 window chamber tumors
[2] = test system: 4T1 mouse mammary carcinoma cells; settings: 4T1 window chamber tumors

Nc1n[n+]([O-])c2ccccc2[n+]1[O-] [tirapazamine]
time required for onset of incipient angiogenesis versus saline treatment ([1]; n=8, log-rank P=0.33): No significant difference
median time required for the initial hypoxic response ([1]; versus 3.5 days saline, Kaplan-Meier, n=8, P<0.001): 9.5 days
time required for incipient angiogenesis versus saline treatment ([2]; n=8, log-rank P=0.66): No significant difference
median time required for the initial hypoxic response ([2]; versus 4 days saline, n=8, P<0.05): 5.5 days
